Test results from patent publication US10336748B2, “Methyoxy-substituted pyrrolopyridine modulators of RORC2 and methods of use thereof” (Pfizer Inc., priority 2015, dated 2019).

Assays:
[1] = tested on: human Th17 cells; experiment: IL-17 production from human Th17 cells; type: cell-based; conditions: 144 h; IL-17A in supernatant by ELISA (MSD) after 6 days, human CD4+ T cells, anti-CD3 + anti-CD28 + cytokine cocktail
Procedure: The activity of compound of the invention can be also be determined by an IL-17 production from human Th17 cells assay. In general, this assay measures blockade of IL-17 production, the signature cytokine of T helper 17 (Th17) cells, by compounds. Purified human CD4+ T cells are stimulated with anti-CD3+anti-CD28 and incubated with a cytokine cocktail that induce their differentiation into Th17 in the absence or presence of various concentrations of compound. After 6 days, IL-17A concentration is measured in the cell culture supernatant with an ELISA kit (MSD).
Preparation of human CD4+ T cells. CD4+ T cells were purified from buffy coats from healthy donors (obtained from Massachusetts General Hospital) by negative selection the following procedure: Mixing 25 mL of blood with 1 mL of Rosette Sep CD4+ T cell enrichment cocktail (StemCell Technologies) followed by application of a layer of 14 mL Ficoll Paque Plus (Amersham GE Healthcare) and subsequent centrifugation at 1200 g for 20 min at room temperature. The Ficoll layer was then harvested and washed with phosphate saline buffer containing 2% (v/v) fetal bovine serum and cells were resuspended with RPMI medium containing 10% (v/v) fetal bovine serum and 10% (v/v) DMSO, frozen and kept in LN2 until used.
On the first day of the assay, a vial containing 10^7 CD4+ T cells is thawed rapidly in 37° C. water bath, immediately transferred into 20 mL X-Vivo 15 medium (Lonza), is spun for 6 min at 300×g, the supernatant is discarded, and the resulting pellet is re-suspended at 10^6 cells/mL in […] fresh X-Vivo 15 medium, followed by storage overnight in a tissue culture vessel in a humidified chamber at 37° C. and 5% CO2. Serial dilutions of compounds of the invention are prepared at 10× final concentration in X-Vivo15 medium containing 3% (v/v) DMSO.
On the second day of the assay, a 384-well tissue culture plate was coated with 10 μg/mL anti-hCD3 (eBioscience) at 50 μL/well. After 2 hr at 37° C., the supernatant is discarded and the coated plates are kept in a sterile tissue culture hood.
Cytokine plus anti-CD28 cocktail is prepared by mixing 25 ng/mL hIL-6 (Peprotech), 5 ng/mL hTGFbeta1 (Peprotech), 12.5 ng/mL IL-1beta (Peprotech), 25 ng/mL hIL-21, 25 ng/mL hIL-23 (R&D Systems), and 1 ug/mL anti-hCD28 (eBioscience) in X-Vivo 15 medium. The cytokine plus anti-CD28 cocktail with CD4+ cells is prepared such that the cocktail is diluted 10-fold and cell density is 0.22×10^6/mL. The mixture is incubated 1 hr at 37° C.
90 μL (20,000 cells) dispensed per well in the anti-hCD3 coated plate prepared as noted above.
10 μL 10× compound is added per well (final DMSO=0.3%) from the compound plate that was previously prepared, followed by 6 days of incubation in a tissue culture vessel in a humidified chamber at 37° C. and 5% CO2.
On day six of the assay, production of IL-17A in 10 μL of the supernatant is determined by sandwich ELISA using 384w hIL17 MSD plates following the manufacturer's protocol. Measurement is carried out in a Sector Imager 6000 by the same manufacturer. Signal units from the instrument are converted to pg/mL using a calibration curve with known amounts of IL-17A. IC50 values of test compounds (Table 2) are determined by the non-linear regression analysis of dose response curves.

[2] = molecular target: T1, RORC2 ligand binding domain (6-His-RORC2 LBD) (Homo sapiens, UniProt P51449); experiment: Co-activator recruitment by TR-FRET; type: biochemical; conditions: 6.3 nM RORC2 LBD, 200 nM SRC1-2 coactivator peptide, 3 hr room temperature
T1 construct: made in house; host or cells: E. coli
T1 sequence (P51449 269-508 limits assumed): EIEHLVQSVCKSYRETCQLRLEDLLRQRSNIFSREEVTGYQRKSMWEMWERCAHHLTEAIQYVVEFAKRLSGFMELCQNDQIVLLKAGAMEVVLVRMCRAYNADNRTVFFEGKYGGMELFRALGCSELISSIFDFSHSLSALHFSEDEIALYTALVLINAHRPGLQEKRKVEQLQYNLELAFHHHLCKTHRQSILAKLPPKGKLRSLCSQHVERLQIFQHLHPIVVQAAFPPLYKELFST
Description: The activity of compound of the invention can be determined by a co-activator recruitment by TR-FRET (time-resolved fluorescence resonance energy transfer) assay. In general, the assay is based on the interaction between N-terminally Six-Histidine-tagged-RORC2 ligand binding domain (6-His-RORC2 LBD), expressed in E. coli and purified by affinity chromatography, and biotin-coactivator peptide SRC1-2 (biotin-aminohexanoic acid-[…]-NH2; SEQ ID NO: 1) containing the LXXLL consensus domain which is responsible for receptor binding. This interaction is detected by addition of Europium labeled-anti-His antibody (Ex. 337 nm, Em. 620 nm, which binds to 6His) and Streptavidin-APC (Ex. 620 nm, Em. 665 nm, which binds to biotin). When receptor and coactivator are bound to each other, upon shining light at 337 nm on the sample, the Europium emits fluorescence that excites APC due to close proximity (FRET) and this signal is measured at 665 nm. Due to the long lasting fluorescence emission of Europium, the non-specific, short-lived fluorescence is time-resolved (TR) from the fluorescence of interest. Inhibitors of the interaction of receptor and coactivator peptide are detected by a decrease in TR-FRET signal.
Specifically, in one embodiment the aforementioned assay was performed as outlined below. The assay was carried out in black polystyrene. 384-well plates in a total assay volume of 50.5 μL. The assay buffer contained 50 mM TRIS-HCL pH 7.5, 1 mM NaCl, 2 mM MgCl2, 0.5 mg/mL bovine serum albumin, and 5 mM dithiothreitol. The final concentration of reagents was 6.3 nM RORC2 LBD, 200 nM SRC1-2, 50 nM streptavidin APC, 1 nM Europium-labeled anti-His antibody, and varying concentrations of compounds such that final concentration of DMSO is 1% (v/v). The assay steps were: (1) dispensing […] compound at 100× final concentration in DMSO (test wells) or DMSO only (control wells for no inhibition); and (2) dispensing 50 μL mixture of the other assay components including receptor (test wells) or excluding receptor (control wells for maximal inhibition).
Assay mixtures were incubated are room temperature for 3 hr and read in EnVision 2100 Multilabel Reader (PerkinElmer Life Sciences) at Excitation Filter 320, Emission Europium Filter 615, Emission APC Filter 665, Dichroic Mirror D400/D630.
TR-FRET signal was determined by calculating the ratio of 665 nm by 615 nm and […] values of compounds of the invention (Table 1) were determined by the non-linear regression analysis of dose response curves.

Structure (SMILES) | IC50 [1] [nM] | IC50 [2] [nM]
COc1c(NC(=O)c2ccc(SC)c(C#N)c2)cnc2c1c(C1CCN(C(=O)[C@H](C)C(C)(C)C)CC1)cn2C [Example 35, (R)-3-cyano-N-(4-methoxy-1-methyl-3-(1-(2,3,3-trimethylbutanoyl)piperidin-4-yl)-1H-pyrrolo[2,3-b]pyridin-5-yl)-4-(methylthio)benzamide] | 12.7 | 3.2
COc1c(NC(=O)c2cccc(C#N)c2)cnc2c1c(C1CCN(C(=O)[C@H](C)C(C)C)CC1)cn2C [Example 6, (R)-3-cyano-N-(3-(1-(2,3-dimethylbutanoyl)piperidin-4-yl)-4-methoxy-1-methyl-1H-pyrrolo[2,3-b]pyridin-5-yl)benzamide] | 15.7 | 15.2
COc1c(NC(=O)c2cccc(C#N)c2)cnc2c1c(C1CCN(C(=O)c3cccc4c3CCC4)CC1)cn2C [Example 7, 3-cyano-N-(3-(1-(2,3-dihydro-1H-indene-4-carbonyl)piperidin-4-yl)-4-methoxy-1-methyl-1H-pyrrolo[2,3-b]pyridin-5-yl)benzamide] | 28.3 | 4.7
COc1c(NC(=O)c2cccc(C#N)c2)cnc2c1c([C@@H]1[C@@H]3CC[C@H]1CN(C(=O)C1CCCC1)C3)cn2C [Example 23, 3-cyano-N-(3-((1R,5S,8r)-3-(cyclopentanecarbonyl)-3-azabicyclo[3.2.1]octan-8-yl)-4-methoxy-1-methyl-1H-pyrrolo[2,3-b]pyridin-5-yl)benzamide] | 38 | 31.2
COc1c(NC(=O)c2cccc(C#N)c2)cnc2c1c([C@@H]1CCN(C(=O)C3CCCC3)C(C)(C)C1)cn2C [Example 31, (R)-3-cyano-N-(3-(1-(cyclopentanecarbonyl)-2,2-dimethylpiperidin-4-yl)-4-methoxy-1-methyl-1H-pyrrolo[2,3-b]pyridin-5-yl)benzamide] | 7.2 | 5.7
COc1c(NC(=O)c2cccc(C#N)c2)cnc2c1c(C1CCN(C(=O)c3c(C)cccc3F)CC1)cn2C [Example 16, 3-cyano-N-(3-(1-(2-fluoro-6-methylbenzoyl)piperidin-4-yl)-4-methoxy-1-methyl-1H-pyrrolo[2,3-b]pyridin-5-yl)benzamide] | 36.5 | 7.2
COc1c(NC(=O)c2cccc(C#N)c2)cnc2c1c([C@@H]1[C@@H]3CC[C@H]1CN(C(=O)C(C)C)C3)cn2C [Example 20, 3-cyano-N-(3-(3-isobutyryl-3-azabicyclo[3.2.1]octan-8-yl)-4-methoxy-1-methyl-1H-pyrrolo[2,3-b]pyridin-5-yl)benzamide] | 112 | 23.2
COc1c(NC(=O)c2cccc(C#N)c2)cnc2c1c([C@@H]1CCN(C(=O)[C@H](C)C(C)(C)C)C(C)(C)C1)cn2C [Example 26, 3-cyano-N-(3-((R)-2,2-dimethyl-1-((R)-2,3,3-trimethylbutanoyl)piperidin-4-yl)-4-methoxy-1-methyl-1H-pyrrolo[2,3-b]pyridin-5-yl)benzamide] | 6.4 | 10.4
COc1c(NC(=O)c2cccc(C#N)c2)cnc2c1c(C1CCN(C(=O)[C@@H](C)C(C)C)CC1)cn2C [Example 14, (S)-3-cyano-N-(3-(1-(2,3-dimethylbutanoyl)piperidin-4-yl)-4-methoxy-1-methyl-1H-pyrrolo[2,3-b]pyridin-5-yl)benzamide] | 42.1 | 14.2
COc1c(NC(=O)c2cccc(C#N)c2)cnc2c1c([C@@H]1CCN(C(=O)C(C)C)C(C)(C)C1)cn2C [Example 28, (R)-3-cyano-N-(3-(1-isobutyryl-2,2-dimethylpiperidin-4-yl)-4-methoxy-1-methyl-1H-pyrrolo[2,3-b]pyridin-5-yl)benzamide] | 21.2 | 6.2
COc1cc(C#N)cc(C(=O)Nc2cnc3c(c(C4CCN(C(=O)C5CCCC5)CC4)cn3C)c2OC)c1 [Example 12, 3-cyano-N-(3-(1-(cyclopentanecarbonyl)piperidin-4-yl)-4-methoxy-1-methyl-1H-pyrrolo[2,3-b]pyridin-5-yl)-5-methoxybenzamide] | 59.8 | 20.2
COc1c(NC(=O)c2cccc(C#N)c2)cnc2c1c([C@@H]1CCN(C(=O)C3CC(C)(C)C3)C(C)(C)C1)cn2C [Example 33, (R)-3-cyano-N-(3-(1-(3,3-dimethylcyclobutane-1-carbonyl)-2,2-dimethylpiperidin-4-yl)-4-methoxy-1-methyl-1H-pyrrolo[2,3-b]pyridin-5-yl)benzamide] | 15.6 | 8.5
COc1c(NC(=O)c2cccc(C#N)c2)cnc2c1c(C1CCN(C(=O)[C@H](C)C(C)(C)C)CC1)cn2C [Example 5, (R)-3-cyano-N-(4-methoxy-1-methyl-3-(1-(2,3,3-trimethylbutanoyl)piperidin-4-yl)-1H-pyrrolo[2,3-b]pyridin-5-yl)benzamide] | 10.6 | 6.1
COc1ccc(C(=O)Nc2cnc3c(c([C@@H]4[C@@H]5CC[C@H]4CN(C(=O)C4CCCC4)C5)cn3C)c2OC)cc1C#N [Example 22, 3-cyano-N-(3-((1R,5S,8r)-3-(cyclopentanecarbonyl)-3-azabicyclo[3.2.1]octan-8-yl)-4-methoxy-1-methyl-1H-pyrrolo[2,3-b]pyridin-5-yl)-4-methoxybenzamide] | 22.7 | 
COc1c(NC(=O)c2cccc(C#N)c2)cnc2c1c([C@@H]1[C@@H]3CC[C@H]1CN(C(=O)[C@H](C)C(C)(C)C)C3)cn2C [Example 21, 3-cyano-N-(4-methoxy-1-methyl-3-((1R,5S,8R)-3-((R)-2,3,3-trimethylbutanoyl)-3-azabicyclo[3.2.1]octan-8-yl)-1H-pyrrolo[2,3-b]pyridin-5-yl)benzamide] | 21.3 | 
